Data from ChEMBL document CHEMBL4393697, “Lipophilic efficient phenylthiazoles with potent undecaprenyl pyrophosphatase inhibitory activity” (Eur J Med Chem, 2019).

Columns and labels:
Streptococcus pneumoniae [1] = experiment: Bactericidal activity against Methicillin resistant Streptococcus pneumoniae ATCC 700677 assessed as reduction in bacterial cell growth incubated for 18 to 20 hrs followed by re-plating on tryptic soy agar plates at 37 degC for 18 hrs by broth microdilution assay; type: functional
Staphylococcus aureus [2] = experiment: Bactericidal activity against vancomycin resistant Staphylococcus aureus VRS11a assessed as reduction in bacterial cell growth incubated for 18 to 20 hrs followed by re-plating on tryptic soy agar plates at 37 degC for 18 hrs by broth microdilution assay; type: functional
Staphylococcus aureus [3] = experiment: Bactericidal activity against Staphylococcus aureus NRS107 assessed as reduction in bacterial cell growth incubated for 18 to 20 hrs followed by re-plating on tryptic soy agar plates at 37 degC for 18 hrs by broth microdilution assay; type: functional
Streptococcus pneumoniae [4] = experiment: Antibacterial activity against Cephalosporin resistant Streptococcus pneumoniae ATCC 51916 assessed as reduction in bacterial cell growth incubated for 18 to 20 hrs by broth microdilution method; type: functional
Staphylococcus aureus [5] = experiment: Bactericidal activity against vancomycin resistant Staphylococcus aureus VRS10 assessed as reduction in bacterial cell growth incubated for 18 to 20 hrs followed by re-plating on tryptic soy agar plates at 37 degC for 18 hrs by broth microdilution assay; type: functional
Staphylococcus aureus [6] = experiment: Antibacterial activity against Staphylococcus aureus ATCC 6538 assessed as reduction in bacterial cell growth incubated for 18 to 20 hrs by broth microdilution method; type: functional
Staphylococcus aureus [7] = experiment: Antibacterial activity against Staphylococcus aureus NRS107 assessed as reduction in bacterial cell growth incubated for 18 to 20 hrs by broth microdilution method; type: functional
Staphylococcus aureus [8] = experiment: Antibacterial activity against methicillin-resistant Staphylococcus aureus USA300 assessed as reduction in bacterial cell growth incubated for 18 to 20 hrs by broth microdilution method; type: functional
Staphylococcus aureus [9] = experiment: Bactericidal activity against Staphylococcus aureus ATCC 6538 assessed as reduction in bacterial cell growth incubated for 18 to 20 hrs followed by re-plating on tryptic soy agar plates at 37 degC for 18 hrs by broth microdilution assay; type: functional
Pseudomonas aeruginosa [10] = experiment: Bactericidal activity against Pseudomonas aeruginosa ATCC 15442 assessed as reduction in bacterial cell growth incubated for 18 to 20 hrs followed by re-plating on tryptic soy agar plates at 37 degC for 18 hrs by broth microdilution assay; type: functional
[11] = system: Staphylococcus epidermidis; experiment: Antibacterial activity against methicillin resistant Staphylococcus epidermidis NRS101 assessed as reduction in bacterial cell growth incubated for 18 to 20 hrs by broth microdilution method; type: functional
Enterococcus faecium [12] = experiment: Antibacterial activity against vancomycin resistant Enterococcus faecium ATCC 700221 assessed as reduction in bacterial cell growth incubated for 18 to 20 hrs by broth microdilution method; type: functional
Escherichia coli [13] = experiment: BActericidal activity against Escherichia coli BW25113 assessed as reduction in bacterial cell growth incubated for 18 to 20 hrs followed by re-plating on tryptic soy agar plates at 37 degC for 18 hrs by broth microdilution assay; type: functional
Staphylococcus aureus [14] = experiment: Antibacterial activity against vancomycin resistant Staphylococcus aureus VRS11a assessed as reduction in bacterial cell growth incubated for 18 to 20 hrs by broth microdilution method; type: functional
[15] = Solubility of compound in PBS after 2 hrs by turbidity based absorbance analysis; type: physicochemical
J774 [16] = experiment: Cytotoxicity against mouse J774 cells reduction in cell viability up to 32 ug/ml incubated for 24 hrs by MTS assay; type: cell-based; conditions: j774, 24 h
Staphylococcus aureus [17] = experiment: Bactericidal activity against vancomycin resistant Staphylococcus aureus VRS12 assessed as reduction in bacterial cell growth incubated for 18 to 20 hrs followed by re-plating on tryptic soy agar plates at 37 degC for 18 hrs by broth microdilution assay; type: functional
Pseudomonas aeruginosa [18] = experiment: Antibacterial activity against Pseudomonas aeruginosa ATCC 15442 assessed as reduction in bacterial cell growth incubated for 18 to 20 hrs by broth microdilution method; type: functional
Klebsiella pneumoniae [19] = experiment: Bactericidal activity against Klebsiella pneumoniae BAA-1706 assessed as reduction in bacterial cell growth incubated for 18 to 20 hrs followed by re-plating on tryptic soy agar plates at 37 degC for 18 hrs by broth microdilution assay; type: functional
Staphylococcus aureus [20] = experiment: Bactericidal activity against methicillin-resistant Staphylococcus aureus USA300 assessed as reduction in bacterial cell growth incubated for 18 to 20 hrs followed by re-plating on tryptic soy agar plates at 37 degC for 18 hrs by broth microdilution assay; type: functional
Escherichia coli [21] = experiment: Bactericidal activity against Escherichia coli JW55031 harboring deltatolC mutant assessed as reduction in bacterial cell growth incubated for 18 to 20 hrs followed by re-plating on tryptic soy agar plates at 37 degC for 18 hrs by broth microdilution assay; type: functional
Staphylococcus aureus [22] = experiment: Antibacterial activity against vancomycin resistant Staphylococcus aureus VRS12 assessed as reduction in bacterial cell growth incubated for 18 to 20 hrs by broth microdilution method; type: functional
Acinetobacter baumannii [23] = experiment: Bactericidal activity against Acinetobacter baumannii ATCC 19606 assessed as reduction in bacterial cell growth incubated for 18 to 20 hrs followed by re-plating on tryptic soy agar plates at 37 degC for 18 hrs by broth microdilution assay; type: functional
Enterococcus faecalis [24] = experiment: Bactericidal activity against vancomycin resistant Enterococcus faecalis ATCC 51299 assessed as reduction in bacterial cell growth incubated for 18 to 20 hrs followed by re-plating on tryptic soy agar plates at 37 degC for 18 hrs by broth microdilution assay; type: functional
Acinetobacter baumannii [25] = experiment: Antibacterial activity against Acinetobacter baumannii ATCC 19606 assessed as reduction in bacterial cell growth incubated for 18 to 20 hrs by broth microdilution method; type: functional
Streptococcus pneumoniae [26] = experiment: Antibacterial activity against Methicillin resistant Streptococcus pneumoniae ATCC 700677 assessed as reduction in bacterial cell growth incubated for 18 to 20 hrs by broth microdilution method; type: functional
Listeria monocytogenes [27] = experiment: Antibacterial activity against Listeria monocytogenes ATCC 19111 assessed as reduction in bacterial cell growth incubated for 18 to 20 hrs by broth microdilution method; type: functional
Enterococcus faecalis [28] = experiment: Antibacterial activity against vancomycin resistant Enterococcus faecalis ATCC 51299 assessed as reduction in bacterial cell growth incubated for 18 to 20 hrs by broth microdilution method; type: functional
Listeria monocytogenes [29] = experiment: Bactericidal activity against Listeria monocytogenes ATCC 19111 assessed as reduction in bacterial cell growth incubated for 18 to 20 hrs followed by re-plating on tryptic soy agar plates at 37 degC for 18 hrs by broth microdilution assay; type: functional
Enterococcus faecium [30] = experiment: Bactericidal activity against vancomycin resistant Enterococcus faecium ATCC 700221 assessed as reduction in bacterial cell growth incubated for 18 to 20 hrs followed by re-plating on tryptic soy agar plates at 37 degC for 18 hrs by broth microdilution assay; type: functional
Staphylococcus aureus [31] = experiment: Bactericidal activity against methicillin resistant Staphylococcus aureus NRS119 assessed as reduction in bacterial cell growth incubated for 18 to 20 hrs followed by re-plating on tryptic soy agar plates at 37 degC for 18 hrs by broth microdilution assay; type: functional
Staphylococcus aureus [32] = experiment: Antibacterial activity against methicillin resistant Staphylococcus aureus NRS119 assessed as reduction in bacterial cell growth incubated for 18 to 20 hrs by broth microdilution method; type: functional
Streptococcus pneumoniae [33] = experiment: Bactericidal activity against Cephalosporin resistant Streptococcus pneumoniae ATCC 51916 assessed as reduction in bacterial cell growth incubated for 18 to 20 hrs followed by re-plating on tryptic soy agar plates at 37 degC for 18 hrs by broth microdilution assay; type: functional
Escherichia coli [34] = experiment: Antibacterial activity against Escherichia coli JW55031 harboring deltatolC mutant assessed as reduction in bacterial cell growth incubated for 18 to 20 hrs by broth microdilution method; type: functional
Escherichia coli [35] = experiment: Antibacterial activity against Escherichia coli BW25113 assessed as reduction in bacterial cell growth incubated for 18 to 20 hrs by broth microdilution method; type: functional
Staphylococcus aureus [36] = experiment: Antibacterial activity against methicillin resistant Staphylococcus aureus USA400 assessed as reduction in bacterial cell growth incubated for 18 to 20 hrs by broth microdilution method; type: functional
Staphylococcus aureus [37] = experiment: Antibacterial activity against vancomycin resistant Staphylococcus aureus VRS10 assessed as reduction in bacterial cell growth incubated for 18 to 20 hrs by broth microdilution method; type: functional
Staphylococcus aureus [38] = experiment: Antibacterial activity against intracellular methicillin resistant Staphylococcus aureus USA400 infected in mouse J774 cells assessed as log10 reduction of viable bacterial cells incubated for 24 hrs followed by re-plating on tryptic soy agar plates at 37 degC for 18 to 22 hrs by broth microdilution assay; type: functional
J774 [39] = experiment: Cytotoxicity against mouse J774 assessed as reduction in cell viability at 16 ug/ml incubated for 24 hrs by MTS assay; type: cell-based; conditions: j774, 24 h
Klebsiella pneumoniae [40] = experiment: Antibacterial activity against Klebsiella pneumoniae BAA-1706 assessed as reduction in bacterial cell growth incubated for 18 to 20 hrs by broth microdilution method; type: functional
[41] = system: Staphylococcus epidermidis; experiment: Bactericidal activity against methicillin resistant Staphylococcus epidermidis NRS101 assessed as reduction in bacterial cell growth incubated for 18 to 20 hrs followed by re-plating on tryptic soy agar plates at 37 degC for 18 hrs by broth microdilution assay; type: functional
Staphylococcus aureus [42] = experiment: Resistance index, ratio of MIC for antibacterial activity against methicillin-resistant Staphylococcus aureus USA400 treated repeatedly over 9 passages to MIC for antibacterial activity against methicillin-resistant Staphylococcus aureus USA400 treated for 18 to 20 hrs by broth microdilution assay; type: functional
Staphylococcus aureus [43] = experiment: Resistance index, ratio of MIC for antibacterial activity against methicillin-resistant Staphylococcus aureus USA400 treated over 1 passage to MIC for antibacterial activity against methicillin-resistant Staphylococcus aureus USA400 treated for 18 to 20 hrs by broth microdilution assay; type: functional

C/C(=N\NC(=N)N)c1sc(-c2ccc(C#Cc3cccc(O)c3)cc2)nc1C
16 µg/mL: MIC (Streptococcus pneumoniae [26])
32 µg/mL: MBC (Streptococcus pneumoniae [1]) | MIC (Enterococcus faecalis [28]) | MBC (Streptococcus pneumoniae [33])
Non-Toxic: Activity (J774 [16]) | Activity (J774 [39])
> 64 µg/mL: MBC (Pseudomonas aeruginosa [10]) | MBC (Escherichia coli [13]) | MIC (Pseudomonas aeruginosa [18]) | MBC (Klebsiella pneumoniae [19]) | MBC (Escherichia coli [21]) | MBC (Acinetobacter baumannii [23]) | MIC (Acinetobacter baumannii [25]) | MIC (Escherichia coli [35]) | MIC (Klebsiella pneumoniae [40])
0.92 log10CFU: Activity (Staphylococcus aureus [38])
8 µg/mL: MIC (Streptococcus pneumoniae [4]) | MIC (Listeria monocytogenes [27])
1 µg/mL: MBC (Enterococcus faecium [30])
2 µg/mL: MIC (Staphylococcus aureus [6]) | MIC [11] | MIC (Staphylococcus aureus [32]) | MIC (Staphylococcus aureus [36]) | MBC [41]
≤ 0.5 µg/mL: MIC (Enterococcus faecium [12])
4 µg/mL: MBC (Staphylococcus aureus [2]) | MBC (Staphylococcus aureus [3]) | MBC (Staphylococcus aureus [5]) | MIC (Staphylococcus aureus [7]) | MIC (Staphylococcus aureus [8]) | MBC (Staphylococcus aureus [9]) | MIC (Staphylococcus aureus [14]) | MBC (Staphylococcus aureus [17]) | MBC (Staphylococcus aureus [20]) | MIC (Staphylococcus aureus [22]) | MBC (Staphylococcus aureus [31]) | MIC (Staphylococcus aureus [37])
64 µg/mL: MBC (Enterococcus faecalis [24]) | MBC (Listeria monocytogenes [29]) | MIC (Escherichia coli [34])
55 µM: solubility kinetic at 2 h [15]

CO[C@H]1/C=C/O[C@@]2(C)Oc3c(C)c(O)c4c(O)c(c(/C=N/N5CCN(C)CC5)c(O)c4c3C2=O)NC(=O)/C(C)=C\C=C\[C@H](C)[C@H](O)[C@@H](C)[C@@H](O)[C@@H](C)[C@H](OC(C)=O)[C@@H]1C [RIFAMPIN]
29: Ratio (Staphylococcus aureus [43])
>500000: Ratio (Staphylococcus aureus [42])
